Measured values as given in ChEMBL document CHEMBL4813981, “Synthesis and in vitro antibacterial activity of new aminothiazole-oximepiperidone cephalosporins” (2021).
In brackets after ≈: the same amount, converted by molar mass.

How the values were obtained:
Assay type in all cases: functional
Acinetobacter baumannii [1] = test: Antibacterial activity against Carbapenem- resistant Acinetobacter baumannii 17-12 assessed as reduction in bacterial growth
Acinetobacter baumannii [2] = test: Antibacterial activity against Carbapenem- resistant Acinetobacter baumannii 17-9 assessed as reduction in bacterial growth
Klebsiella pneumoniae [3] = test: Antibacterial activity against Carbapenem- resistant Klebsiella pneumoniae KR 15-4 assessed as reduction in bacterial growth
Klebsiella pneumoniae [4] = test: Antibacterial activity against Carbapenem- sensitive Klebsiella pneumoniae 17-10 overexpressing extended spectrum beta-lactamases assessed as reduction in bacterial growth
Klebsiella pneumoniae [5] = test: Bactericidal activity against ESBLs negative Carbapenem-sensitive Klebsiella pneumoniae 17-16 assessed as reduction in bacterial growth in the presence of avibactam
Pseudomonas aeruginosa [6] = test: Bactericidal activity against carbapenem-sensitive Pseudomonas aeruginosa 17-7 assessed as reduction in bacterial growth
Escherichia coli [7] = test: Antibacterial activity against ESBLs negative Carbapenem-sensitive Escherichia coli 17-16 assessed as reduction in bacterial growth
Escherichia coli [8] = test: Antibacterial activity against ESBLs negative Carbapenem-sensitive Escherichia coli 17-7 assessed as reduction in bacterial growth in the presence of Avibactam
Klebsiella aerogenes [9] = test: Antibacterial activity against Enterobacter aerogenes 17-1 assessed as reduction in bacterial growth in the presence of Avibactam
Enterobacter cloacae [10] = test: Bactericidal activity against Enterobacter cloacae 17-10 assessed as reduction in bacterial growth in the presence of avibactam
Enterobacter cloacae [11] = test: Antibacterial activity against Enterobacter cloacae 17-7 assessed as reduction in bacterial growth
Klebsiella aerogenes [12] = test: Antibacterial activity against Enterobacter aerogenes 15-5 assessed as reduction in bacterial growth
Escherichia coli [13] = test: Bactericidal activity against ESBLs positive carbapenem-sensitive Escherichia coli 17-3 assessed as reduction in bacterial growth in the presence of avibactam
Escherichia coli [14] = test: Bactericidal activity against ESBLs positive Carbapenem-sensitive Escherichia coli 17-18 assessed as reduction in bacterial growth
Acinetobacter baumannii [15] = test: Antibacterial activity against Carbapenem- resistant Acinetobacter baumannii 17-6 assessed as reduction in bacterial growth
Klebsiella pneumoniae [16] = test: Antibacterial activity against Carbapenem- resistant Klebsiella pneumoniae KR 15-9 assessed as reduction in bacterial growth
Acinetobacter baumannii [17] = test: Antibacterial activity against Acinetobacter baumannii NCTC 13304 assessed as reduction in bacterial growth
Escherichia coli [18] = test: Antibacterial activity against ESBLs positive Carbapenem-sensitive Escherichia coli 17-5 assessed as reduction in bacterial growth
Klebsiella pneumoniae [19] = test: Antibacterial activity against Carbapenem- resistant Klebsiella pneumoniae KR 15-11 assessed as reduction in bacterial growth in the presence of Avibactam
Klebsiella pneumoniae [20] = test: Antibacterial activity against Carbapenem- resistant Klebsiella pneumoniae KR 15-11 assessed as reduction in bacterial growth
Escherichia coli [21] = test: Antibacterial activity against ESBLs negative Carbapenem-sensitive Escherichia coli 17-20 assessed as reduction in bacterial growth
Pseudomonas aeruginosa [22] = test: Antibacterial activity against Carbapenem- sensitive Pseudomonas aeruginosa 17-11 assessed as reduction in bacterial growth
Enterobacter cloacae [23] = test: Bactericidal activity against Enterobacter cloacae 17-3 assessed as reduction in bacterial growth in the presence of avibactam
Escherichia coli [24] = test: Antibacterial activity against ESBLs positive Carbapenem-sensitive Escherichia coli 17-15 assessed as reduction in bacterial growth
Klebsiella pneumoniae [25] = test: Antibacterial activity against Carbapenem- sensitive Klebsiella pneumoniae 17-11 overexpressing extended spectrum beta-lactamases assessed as reduction in bacterial growth
Acinetobacter baumannii [26] = test: Antibacterial activity against Carbapenem- resistant Acinetobacter baumannii 17-5 assessed as reduction in bacterial growth
Acinetobacter baumannii [27] = test: Antibacterial activity against Carbapenem- resistant Acinetobacter baumannii 17-5 assessed as reduction in bacterial growth in the presence of Avibactam
Acinetobacter baumannii [28] = test: Antibacterial activity against Carbapenem- resistant Acinetobacter baumannii 17-2 assessed as reduction in bacterial growth
Acinetobacter baumannii [29] = test: Antibacterial activity against Carbapenem- resistant Acinetobacter baumannii 17-8 assessed as reduction in bacterial growth
Klebsiella pneumoniae [30] = test: Antibacterial activity against ESBLs positive Carbapenem-sensitive Klebsiella pneumoniae 17-7 assessed as reduction in bacterial growth in the presence of Avibactam
Pseudomonas aeruginosa [31] = test: Antibacterial activity against Carbapenem- sensitive Pseudomonas aeruginosa 17-29 assessed as reduction in bacterial growth
Klebsiella pneumoniae [32] = test: Antibacterial activity against Carbapenem- sensitive Klebsiella pneumoniae 17-7 overexpressing extended spectrum beta-lactamases assessed as reduction in bacterial growth
Klebsiella pneumoniae [33] = test: Antibacterial activity against Multidrug resistant Klebsiella pneumoniae KR 15-2 assessed as reduction in bacterial growth
Klebsiella aerogenes [34] = test: Antibacterial activity against Enterobacter aerogenes 17-2 assessed as reduction in bacterial growth
Enterobacter cloacae [35] = test: Antibacterial activity against Enterobacter cloacae 17-1 assessed as reduction in bacterial growth
Klebsiella pneumoniae [36] = test: Antibacterial activity against Carbapenem- resistant Klebsiella pneumoniae KR 15-5 assessed as reduction in bacterial growth
Klebsiella pneumoniae [37] = test: Antibacterial activity against Carbapenem- sensitive Klebsiella pneumoniae 17-1 overexpressing extended spectrum beta-lactamases assessed as reduction in bacterial growth
Enterobacter cloacae [38] = test: Antibacterial activity against Enterobacter cloacae 17-3 assessed as reduction in bacterial growth
Klebsiella pneumoniae [39] = test: Antibacterial activity against ESBLs negative Carbapenem-sensitive Klebsiella pneumoniae 17-16 assessed as reduction in bacterial growth
Escherichia coli [40] = test: Antibacterial activity against ESBLs positive Carbapenem-sensitive Escherichia coli 17-22 assessed as reduction in bacterial growth
Enterobacter cloacae [41] = test: Antibacterial activity against Enterobacter cloacae 17-2 assessed as reduction in bacterial growth
Klebsiella pneumoniae [42] = test: Antibacterial activity against Carbapenem- sensitive Klebsiella pneumoniae 17-13 overexpressing extended spectrum beta-lactamases assessed as reduction in bacterial growth
Escherichia coli [43] = test: Antibacterial activity against ESBLs positive Carbapenem-sensitive Escherichia coli 17-12 assessed as reduction in bacterial growth
Pseudomonas aeruginosa [44] = test: Antibacterial activity against Carbapenem- sensitive Pseudomonas aeruginosa 17-22 assessed as reduction in bacterial growth
Escherichia coli [45] = test: Antibacterial activity against ESBLs positive Carbapenem-sensitive Escherichia coli 17-3 assessed as reduction in bacterial growth
Enterobacter cloacae [46] = test: Antibacterial activity against Enterobacter cloacae 17-9 assessed as reduction in bacterial growth
Acinetobacter baumannii [47] = test: Antibacterial activity against Carbapenem- resistant Acinetobacter baumannii 17-3 assessed as reduction in bacterial growth
Klebsiella pneumoniae [48] = test: Antibacterial activity against Carbapenem- sensitive Klebsiella pneumoniae 17-3 overexpressing extended spectrum beta-lactamases assessed as reduction in bacterial growth
Escherichia coli [49] = test: Antibacterial activity against ESBLs positive Carbapenem-sensitive Escherichia coli 17-21 assessed as reduction in bacterial growth
Klebsiella pneumoniae [50] = test: Antibacterial activity against Carbapenem- sensitive Klebsiella pneumoniae 17-5 overexpressing extended spectrum beta-lactamases assessed as reduction in bacterial growth
Klebsiella pneumoniae [51] = test: Antibacterial activity against Carbapenem- resistant Klebsiella pneumoniae KR 15-8 assessed as reduction in bacterial growth
Klebsiella pneumoniae [52] = test: Antibacterial activity against ESBLs positive Carbapenem-sensitive Klebsiella pneumoniae 17-6 assessed as reduction in bacterial growth in the presence of Avibactam

Nc1nc(/C(=N/OCc2cc(=O)c(O)cn2O)C(=O)N[C@@H]2C(=O)N3C(C(=O)O)=CCS[C@H]23)cs1
MIC (Acinetobacter baumannii [1]): > 64 µg/mL | MIC (Acinetobacter baumannii [2]): > 64 µg/mL | MIC (Klebsiella pneumoniae [3]): > 64 µg/mL | MIC (Klebsiella pneumoniae [4]): > 64 µg/mL | MBC (Klebsiella pneumoniae [5]): 0.06 µg/mL | MBC (Pseudomonas aeruginosa [6]): 1 µg/mL (≈ 1.97 µM) | MIC (Escherichia coli [7]): 2 µg/mL (≈ 3.93 µM) | MIC (Escherichia coli [8]): 0.5 µg/mL | MIC (Klebsiella aerogenes [9]): 2 µg/mL | MBC (Enterobacter cloacae [10]): 1 µg/mL | MIC (Enterobacter cloacae [11]): > 64 µg/mL | MIC (Klebsiella aerogenes [12]): 8 µg/mL (≈ 15.7 µM) | MBC (Escherichia coli [13]): 0.25 µg/mL | MBC (Escherichia coli [14]): 32 µg/mL (≈ 62.9 µM) | MIC (Acinetobacter baumannii [15]): > 64 µg/mL | MIC (Klebsiella pneumoniae [16]): > 64 µg/mL | MIC (Acinetobacter baumannii [17]): > 64 µg/mL | MIC (Escherichia coli [18]): 64 µg/mL (≈ 126 µM) | MIC (Klebsiella pneumoniae [19]): 1 µg/mL | MIC (Klebsiella pneumoniae [20]): > 64 µg/mL | MIC (Escherichia coli [21]): 0.25 µg/mL (≈ 0.492 µM) | MIC (Pseudomonas aeruginosa [22]): 8 µg/mL (≈ 15.7 µM) | MBC (Enterobacter cloacae [23]): 8 µg/mL | MIC (Escherichia coli [24]): > 64 µg/mL | MIC (Klebsiella pneumoniae [25]): > 64 µg/mL | MIC (Acinetobacter baumannii [26]): > 64 µg/mL | MIC (Acinetobacter baumannii [27]): 16 µg/mL | MIC (Acinetobacter baumannii [28]): > 64 µg/mL | MIC (Acinetobacter baumannii [29]): > 64 µg/mL | MIC (Klebsiella pneumoniae [30]): 2 µg/mL | MIC (Pseudomonas aeruginosa [31]): 2 µg/mL (≈ 3.93 µM) | MIC (Klebsiella pneumoniae [32]): > 64 µg/mL | MIC (Klebsiella pneumoniae [33]): > 64 µg/mL | MIC (Klebsiella aerogenes [34]): 64 µg/mL (≈ 126 µM) | MIC (Enterobacter cloacae [35]): 1 µg/mL (≈ 1.97 µM) | MIC (Klebsiella pneumoniae [36]): > 64 µg/mL | MIC (Klebsiella pneumoniae [37]): 64 µg/mL (≈ 126 µM) | MIC (Enterobacter cloacae [38]): 64 µg/mL (≈ 126 µM) | MIC (Klebsiella pneumoniae [39]): 0.5 µg/mL (≈ 0.983 µM) | MIC (Escherichia coli [40]): > 64 µg/mL | MIC (Enterobacter cloacae [41]): > 64 µg/mL | MIC (Klebsiella pneumoniae [42]): 1 µg/mL (≈ 1.97 µM) | MIC (Escherichia coli [43]): 4 µg/mL (≈ 7.87 µM) | MIC (Pseudomonas aeruginosa [44]): 1 µg/mL (≈ 1.97 µM) | MIC (Escherichia coli [45]): 2 µg/mL (≈ 3.93 µM) | MIC (Enterobacter cloacae [46]): 8 µg/mL (≈ 15.7 µM) | MIC (Acinetobacter baumannii [47]): > 64 µg/mL | MIC (Klebsiella pneumoniae [48]): > 64 µg/mL | MIC (Escherichia coli [49]): 64 µg/mL (≈ 126 µM) | MIC (Klebsiella pneumoniae [50]): 8 µg/mL (≈ 15.7 µM) | MIC (Klebsiella pneumoniae [51]): > 64 µg/mL | MIC (Klebsiella pneumoniae [52]): 0.25 µg/mL
